Results published in PMC11079024, “Identification of a family of species-selective complex I inhibitors as potential anthelmintics” (Nature Communications, 2024).
Values joined by “and” are separate entries in the source; they are usually repeats but may differ in a detail not shown here. Equal values may be shown once. Read-outs that look alike come from different tables or passages of the source.

Columns and labels:
[1] = target: M. musculus (heart) complex I (Mus musculus, UniProt P03888+Q91WD5+Q9DC70); experiment: biochemical; assay type: biochemical; design: Complex I activity, dose-response data: unit not given here; settings: for activity at 0.0001 µM / Complex I activity, dose-response data / activity at 0.0005 µM / activity at 0.001 µM / activity at 0.0025 µM / activity at 0.005 µM / activity at 0.013 µM / activity at 0.025 µM / activity at 0.063 µM / activity at 0.125 µM / activity at 0.313 µM / activity at 0.625 µM / activity at 1.5 µM / activity at 3 µM / activity at 15 µM / activity at 37.5 µM / activity at 75 µM: M. musculus; for activity at 0.0001 µM / activity at 0.0005 µM / activity at 0.001 µM / activity at 0.0025 µM / activity at 0.005 µM / activity at 0.013 µM / activity at 0.025 µM / activity at 0.063 µM / activity at 0.125 µM / activity at 0.313 µM / activity at 0.625 µM / activity at 1.5 µM / activity at 3 µM / activity at 15 µM / activity at 37.5 µM / activity at 75 µM: read-out: Complex I activity, dose-response data; for IC50: heart mitochondria
How it was run: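 Complex I activity followed as DCIP reduction (600 nm, 30 s reads, 15 min) with 80 μM NADH and 60 μM decylubiquinone in 25 mM KPi pH 7.5 containing 2 μM antimycin A and 2 mM KCN. Freeze-thawed mouse or bovine heart mitochondria at 0.2 mg/mL; initial-rate percent of solvent control, single-point 100 μM or dose-response.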

[2] = test system: C. elegans complex IV (cytochrome C oxidase); experiment: In vitro complex IV activity assay, C. elegans mitochondria; assay type: biochemical, Caenorhabditis elegans; settings: for % Activity Complex IV: 100 µM compound, relative to solvent control, mean (SEM); for Percent in vitro activity, Complex IV (single replicate Rep1-Rep4) / Percent in vitro activity, Complex IV (Mean): 100 μM of NPD compound, C. elegans mitochondria; for Percent in vitro activity, Complex IV (single replicate Rep1-Rep4): individual biological replicates; for Percent in vitro activity, Complex IV (Mean): mean of four biological replicates
How it was run: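 Cytochrome C oxidase activity read spectrophotometrically at 550 nm (30 s intervals, 15 min) as oxidation of freshly DTT-reduced CytC. Mitochondria (0.2 mg/mL) came from adult worms of six C. elegans strains grown at 20 °C. Rates were taken from initial linear phase and normalised to solvent-control wells.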

[3] = dose 0.0001 µM, Mean of replicates
[4] = dose 0.0001 µM, individual replicates (Rep)
[5] = dose 0.0005 µM, Mean of replicates
[6] = dose 0.0005 µM, individual replicates (Rep)
[7] = dose 0.001 µM, Mean of replicates
[8] = dose 0.001 µM, individual replicates (Rep)
[9] = dose 0.0025 µM, Mean of replicates
[10] = dose 0.0025 µM, individual replicates (Rep)
[11] = dose 0.005 µM, Mean of replicates
[12] = dose 0.005 µM, individual replicates (Rep)
[13] = dose 0.013 µM, Mean of replicates
[14] = dose 0.013 µM, individual replicates (Rep)
[15] = dose 0.025 µM, Mean of replicates
[16] = dose 0.025 µM, individual replicates (Rep)
[17] = dose 0.063 µM, Mean of replicates
[18] = dose 0.063 µM, individual replicates (Rep)
[19] = dose 0.125 µM, Mean of replicates
[20] = dose 0.125 µM, individual replicates (Rep)
[21] = dose 0.313 µM, Mean of replicates
[22] = dose 0.313 µM, individual replicates (Rep)
[23] = dose 0.625 µM, Mean of replicates
[24] = dose 0.625 µM, individual replicates (Rep)
[25] = dose 1.5 µM, Mean of replicates
[26] = dose 1.5 µM, individual replicates (Rep)
[27] = dose 3 µM, individual replicates (Rep)
[28] = dose 15 µM, individual replicates (Rep)
[29] = dose 37.5 µM, Mean of replicates
[30] = dose 37.5 µM, individual replicates (Rep)
[31] = dose 75 µM, individual replicates (Rep)

Chain of M. musculus (heart) complex I (Q91WD5 34-463): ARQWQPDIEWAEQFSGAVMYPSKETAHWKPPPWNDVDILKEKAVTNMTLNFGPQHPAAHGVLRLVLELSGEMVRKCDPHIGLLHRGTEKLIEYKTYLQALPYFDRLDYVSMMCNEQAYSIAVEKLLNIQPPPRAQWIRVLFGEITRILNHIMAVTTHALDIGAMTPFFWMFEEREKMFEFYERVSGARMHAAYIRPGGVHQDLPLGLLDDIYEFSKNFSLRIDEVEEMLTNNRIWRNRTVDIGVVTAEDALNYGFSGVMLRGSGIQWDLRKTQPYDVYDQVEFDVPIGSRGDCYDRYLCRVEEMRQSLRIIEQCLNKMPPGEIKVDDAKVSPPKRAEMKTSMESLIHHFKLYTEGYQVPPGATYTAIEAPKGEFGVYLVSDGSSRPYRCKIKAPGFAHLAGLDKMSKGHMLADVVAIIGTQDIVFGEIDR
Chain of M. musculus (heart) complex I (Q9DC70 36-224): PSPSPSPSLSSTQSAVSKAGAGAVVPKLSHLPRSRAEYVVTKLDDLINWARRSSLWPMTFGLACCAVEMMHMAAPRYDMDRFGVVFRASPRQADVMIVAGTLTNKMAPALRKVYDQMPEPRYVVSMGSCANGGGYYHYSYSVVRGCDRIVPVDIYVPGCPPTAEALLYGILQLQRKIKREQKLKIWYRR
Chain of M. musculus (heart) complex I (P03888 whole entry): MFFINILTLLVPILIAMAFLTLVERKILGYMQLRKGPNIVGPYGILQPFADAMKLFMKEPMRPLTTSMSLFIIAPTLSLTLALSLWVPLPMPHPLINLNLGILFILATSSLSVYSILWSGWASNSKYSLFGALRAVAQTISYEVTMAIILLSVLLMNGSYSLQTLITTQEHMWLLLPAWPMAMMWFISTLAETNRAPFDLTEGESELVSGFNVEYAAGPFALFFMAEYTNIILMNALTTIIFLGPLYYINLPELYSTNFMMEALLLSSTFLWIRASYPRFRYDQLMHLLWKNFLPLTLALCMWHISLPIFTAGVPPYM

For COc1cc2c(cc1OC)C(c1ccc(-c3ccc(Cl)c(Cl)c3)o1)=NCC2 [NPD3577], the activity at 0.0001 µM [1, 3] was 99.3%, the “Complex I activity, dose-response data” value [1, 4] was 99.760 and 97.530 and 100.984 and the activity at 0.0001 µM [1, 4] was 98.7%. The activity at 0.0005 µM [1, 5] was 99.8%, the “Complex I activity, dose-response data” value [1, 6] was 100.720 and 95.586 and 99.617 and the activity at 0.0005 µM [1, 6] was 103%. For the same compound, the activity at 0.001 µM [1, 7] was 103%, the “Complex I activity, dose-response data” value [1, 8] was 108.824 and 94.850 and 104.918 and the activity at 0.001 µM [1, 8] was 104%. The activity at 0.0025 µM [1, 9] was 107%, the “Complex I activity, dose-response data” value [1, 10] was 111.585 and 102.733 and 109.563 and the activity at 0.0025 µM [1, 10] was 103%. For the same compound, the activity at 0.005 µM [1, 11] was 107%, the “Complex I activity, dose-response data” value [1, 12] was 112.125 and 100.788 and 103.716 and the activity at 0.005 µM [1, 12] was 109%. For the same compound, the activity at 0.013 µM [1, 13] was 104%, the “Complex I activity, dose-response data” value [1, 14] was 108.043 and 100.788 and 100.055 and the activity at 0.013 µM [1, 14] was 107%. The activity at 0.025 µM [1, 15] was 107%, the “Complex I activity, dose-response data” value [1, 16] was 126.379 and 112.185 and 93.904 and 97.158 and the activity at 0.063 µM [1, 17] was 100%. For the same compound, the “Complex I activity, dose-response data” value [1, 18] was 110.072 and 110.684 and 90.068 and 89.235, the activity at 0.125 µM [1, 19] was 96.8% and the “Complex I activity, dose-response data” value [1, 20] was 107.614 and 105.282 and 84.971 and 89.399. The activity at 0.313 µM [1, 21] was 197%, the “Complex I activity, dose-response data” value [1, 22] was 207.614 and 205.282 and 184.971 and 189.399 and the activity at 0.625 µM [1, 23] was 297%. For the same compound, the “Complex I activity, dose-response data” value [1, 24] was 307.614 and 305.282 and 284.971 and 289.399, the activity at 1.5 µM [1, 25] was 397% and the “Complex I activity, dose-response data” value [1, 26] was 407.614 and 405.282 and 384.971 and 389.399. For the same compound, the activity at 3 µM ([1]; dose 3 µM, Mean of replicates) was 97.4%, the “Complex I activity, dose-response data” value [1, 27] was 96.485 and 88.056 and 108.623 and 96.419 and the activity at 15 µM ([1]; dose 15 µM, Mean of replicates) was 81.9%. The “Complex I activity, dose-response data” value [1, 28] was 74.817 and 86.108 and 83.789, the activity at 15 µM [1, 28] was 82.8% and the activity at 37.5 µM [1, 29] was 55.4%. The “Complex I activity, dose-response data” value [1, 30] was 57.697 and 52.394 and 66.227 and 45.378, the activity at 75 µM ([1]; dose 75 µM, Mean of replicates) was 50.2% and the “Complex I activity, dose-response data” value [1, 31] was 47.944 and 55.928 and 45.443. For the same compound, the activity at 75 µM [1, 31] was 51.4%, the IC50 [1] was 18.8 µM and the “% Activity Complex IV” value [2] was 81.06 (2.34) %. For the same compound, the “Percent in vitro activity, Complex IV (single replicate Rep1-Rep4)” value [2] was 78.287% and 81.122% and 71.227% and 93.621% and the “Percent in vitro activity, Complex IV (Mean)” value [2] was 81.064%.
In the case of COc1cc2c(cc1OC)C(C(C)c1ccc(CC(C)C)cc1)=NCC2 (centres unmarked) [NPD10504], the activity at 0.0001 µM [1, 3] is reported as 100%, the “Complex I activity, dose-response data” value [1, 4] is reported as 98.111 and 98.124 and 101.101 and the activity at 0.0001 µM [1, 4] is reported as 104%. The activity at 0.0005 µM [1, 5] was 102%, the “Complex I activity, dose-response data” value [1, 6] was 96.317 and 102.767 and 102.719 and the activity at 0.0005 µM [1, 6] was 108%. For the same compound, the activity at 0.001 µM [1, 7] was 105%, the “Complex I activity, dose-response data” value [1, 8] was 99.985 and 104.571 and 105.658 and the activity at 0.001 µM [1, 8] was 109%. The activity at 0.0025 µM [1, 9] was 106%, the “Complex I activity, dose-response data” value [1, 10] was 98.620 and 108.582 and 106.862 and the activity at 0.0025 µM [1, 10] was 111%. For the same compound, the activity at 0.005 µM [1, 11] was 106%, the “Complex I activity, dose-response data” value [1, 12] was 97.614 and 105.909 and 105.173 and the activity at 0.005 µM [1, 12] was 114%. For the same compound, the activity at 0.013 µM [1, 13] was 106%, the “Complex I activity, dose-response data” value [1, 14] was 117.888 and 97.083 and 107.285 and 103.285 and the activity at 0.025 µM [1, 15] was 108%. For the same compound, the “Complex I activity, dose-response data” value [1, 16] was 106.620 and 105.888 and 103.706, the activity at 0.025 µM [1, 16] was 114% and the activity at 0.063 µM [1, 17] was 102%. For the same compound, the “Complex I activity, dose-response data” value [1, 18] was 96.239 and 106.202 and 93.573, the activity at 0.063 µM [1, 18] was 112% and the activity at 0.125 µM [1, 19] was 100%. The “Complex I activity, dose-response data” value [1, 20] was 95.373 and 99.771 and 94.821, the activity at 0.125 µM [1, 20] was 110% and the activity at 0.313 µM [1, 21] was 200%. The “Complex I activity, dose-response data” value [1, 22] was 195.373 and 199.771 and 194.821, the activity at 0.313 µM [1, 22] was 210% and the activity at 0.625 µM [1, 23] was 300%. The “Complex I activity, dose-response data” value [1, 24] was 295.373 and 299.771 and 294.821, the activity at 0.625 µM [1, 24] was 310% and the activity at 1.5 µM [1, 25] was 400%. The “Complex I activity, dose-response data” value [1, 26] was 395.373 and 399.771 and 394.821, the activity at 1.5 µM [1, 26] was 410% and the activity at 3 µM ([1]; dose 3 µM, Mean of replicates) was 75.9%. The “Complex I activity, dose-response data” value [1, 27] was 70.628 and 77.319 and 76.050, the activity at 3 µM [1, 27] was 79.7% and the activity at 15 µM ([1]; dose 15 µM, Mean of replicates) was 32.6%. For the same compound, the “Complex I activity, dose-response data” value [1, 28] was 30.650 and 32.968 and 29.935, the activity at 15 µM [1, 28] was 37% and the activity at 37.5 µM [1, 29] was 10.6%. For the same compound, the “Complex I activity, dose-response data” value [1, 30] was 11.252 and 10.388 and 9.191, the activity at 37.5 µM [1, 30] was 11.7% and the activity at 75 µM ([1]; dose 75 µM, Mean of replicates) was 3.69%. For the same compound, the “Complex I activity, dose-response data” value [1, 31] was 3.180 and 4.662 and 2.397, the activity at 75 µM [1, 31] was 4.5% and the IC50 [1] was 9.52 µM. The “% Activity Complex IV” value [2] was 74.57 (1.35) %, the “Percent in vitro activity, Complex IV (single replicate Rep1-Rep4)” value [2] was 71.688% and 71.402% and 72.596% and 82.587% and the “Percent in vitro activity, Complex IV (Mean)” value [2] was 74.568%.
